Patent publication US11179435B2, “Hangover alleviating composition containing conjugate of sesamol and peptide as active ingredient” (CAREGEN CO., LTD., priority 2017, dated 2021)
Starred links: 1 amine or outer side, 2 acyl side, 3 side chain; linkers in the order of their positions; H or OH if unused. No end group written: not given here. Suc = O=C(CCC(=O)[*:2])[*:1]

Experiments:
Assay type in all cases: cell-based, human
[1] = test system: aldehyde dehydrogenase (ALDH); assay: ALDH activity assay in HepG2 cells treated with conjugate; conditions: 50 μM or 100 μM, 24 hours, compared to untreated control group
Procedure: Alcohol was converted to acetaldehyde by alcohol dehydrogenase (ADH), an alcohol degrading enzyme, and the converted acetaldehyde was converted and degraded to acetate by aldehyde dehydrogenase (ALDH). Therefore, in order to confirm the effect of increasing the activity of ALDH involved in the alcohol degradation process, liver carcinoma cells were treated with the two types of conjugates of the sesamol and the peptides prepared in [Preparation Example 2], respectively, and then the ALDH activity assay was performed.
Specifically, liver hepatocellular carcinoma (HepG2) cells, which were human liver carcinoma cells, were inoculated into a 6-well plate at a density of 4×10^5 cells/well and then incubated overnight. Thereafter, the two types of conjugates of the sesamol and the peptides prepared in [Preparation Example 2] were treated at a concentration of 50 μM or 100 μM, respectively, and incubated for 24 hours, and the cells were collected and then the ALDH activity was analyzed using an ALDH activity assay kit (abcam, ab155893). Meanwhile, a positive control group was treated with 5 μM sulfolaphane.
For the ALDH activity assay, each of the collected cells was treated with an ALDH activity assay buffer included in the kit, and then lysed with a homogenizer under ice. […] Thereafter, the ALDH activity was calculated using the following [Equation 1]. […]

ADH4 = assay: RT-PCR mRNA expression in HepG2 cells; conditions: 10 μM or 50 μM, 6 hours, compared with untreated control group
Procedure: (§1) In order to confirm an effect of increasing the expression of ADH and ALDH involved in the alcohol degradation process, liver carcinoma cells were treated with the two types of conjugates of the sesamol and the peptides prepared in [Preparation Example 2], respectively, and then RT-PCR was performed.
(§2) Specifically, HepG2 cells were inoculated in a 6-well plate at a density of 4×10^5 cells/well, and then incubated overnight. Thereafter, the two types of conjugates of the sesamol and the peptides prepared in [Preparation Example 2] were treated at a concentration of 10 μM or 50 μM, respectively, and incubated for 6 hours, and the cells were collected. Thereafter, the total RNA was isolated from the collected cells according to a manufacturer's protocol using Trizol (Invitrogen, USA), and then 1 μg of the isolated RNA was synthesized to cDNA according to a manufacturer's protocol using a cDNA synthesis kit (Intron, Korea). The cDNA was subjected to PCR using primers shown in Table 2 below, and then electrophoresed on a 5% agarose gel to confirm mRNA expression levels of ADH4, ALDH1, and ALDH2.

ALDH1 = assay: RT-PCR mRNA expression in HepG2 cells; conditions: 10 μM or 50 μM, 6 hours, compared with untreated control group
Procedure: as §1, §2

ALDH2 = assay: RT-PCR mRNA expression in HepG2 cells; conditions: 10 μM or 50 μM, 6 hours, compared with untreated control group
Procedure: as §1, §2

Q: What does the source list for “SEQ ID NO: 1: Sesamol linked via succinyl linker to the N-terminus of peptide SIPCKLQSG (SEQ ID NO: 1) ({sesamol-Suc}-SIPCKLQSG)”?
A: ALDH activity [1]: increased in a concentration-dependent manner; mRNA expression of ADH4 (ADH4): significantly increased; mRNA expression of ALDH1 (ALDH1): significantly increased; mRNA expression of ALDH2 (ALDH2): significantly increased
